Activity calls are given as the source filed them.

Type in all cases: functional
Experiment [1] addresses Dual specificity protein kinase CLK2 (Homo sapiens, UniProt P49760).
The target of experiment [2] is Protein kinase C zeta type (Homo sapiens, UniProt Q05513).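 Further: measured as one member of a broad kinase profiling panel.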
The target of experiment [3] is Ribosomal protein S6 kinase beta-1 (Homo sapiens, UniProt P23443).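 Further: measured as one member of a kinome-wide profiling panel.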
Experiment [4] has as its target Tyrosine-protein kinase SYK (Homo sapiens, UniProt P43405).
The target in the next experiment is SRSF protein kinase 1 (Homo sapiens, UniProt Q96SB4).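 Further: measured as one member of a kinome-wide kinase profiling panel.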
For experiment [5], the target named is Mast/stem cell growth factor receptor Kit (Homo sapiens, UniProt P10721).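 Further: KIT entry within a kinase panel assay.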
The target of experiment [6] is Calcium/calmodulin-dependent protein kinase type II subunit delta (Homo sapiens, UniProt Q13557).
The target in experiment [7] is Tyrosine-protein kinase JAK3 (Homo sapiens, UniProt P52333).
For experiment [8], the target named is Casein kinase I isoform gamma-1 (Homo sapiens, UniProt Q9HCP0).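 Further: measured as the CSNK1G1 member of a kinome profiling panel.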
The target in experiment [9] is Serine/threonine-protein kinase N2 (Homo sapiens, UniProt Q16513).
For experiment [10], the target named is Mitogen-activated protein kinase 13 (Homo sapiens, UniProt O15264).
The target of experiment [11] is Mitogen-activated protein kinase kinase kinase 20 (Homo sapiens, UniProt Q9NYL2).
In experiment [12] the target is Protein kinase C gamma type (Homo sapiens, UniProt P05129).
Experiment [13] addresses Dual specificity tyrosine-phosphorylation-regulated kinase 3 (Homo sapiens, UniProt O43781).
For experiment [14], the target named is Casein kinase I isoform delta (Homo sapiens, UniProt P48730).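 Further: measured as one member (CSNK1D) of a kinome panel.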
Experiment [15] addresses G protein-coupled receptor kinase 5 (Homo sapiens, UniProt P34947). In words: Navigating the Kinome. Panel member name: GPRK5.
The target in experiment [16] is Mitogen-activated protein kinase 1 (Homo sapiens, UniProt P28482).
The target in experiment [17] is Serine/threonine-protein kinase Nek4 (Homo sapiens, UniProt P51957).
The target of a further experiment is Aurora kinase B (Homo sapiens, UniProt Q96GD4).
For experiment [18], the target named is T1, Interleukin-1 receptor-associated kinase 4 (Homo sapiens, UniProt Q9NWZ3).
T1 sequence (Q9NWZ3 whole entry): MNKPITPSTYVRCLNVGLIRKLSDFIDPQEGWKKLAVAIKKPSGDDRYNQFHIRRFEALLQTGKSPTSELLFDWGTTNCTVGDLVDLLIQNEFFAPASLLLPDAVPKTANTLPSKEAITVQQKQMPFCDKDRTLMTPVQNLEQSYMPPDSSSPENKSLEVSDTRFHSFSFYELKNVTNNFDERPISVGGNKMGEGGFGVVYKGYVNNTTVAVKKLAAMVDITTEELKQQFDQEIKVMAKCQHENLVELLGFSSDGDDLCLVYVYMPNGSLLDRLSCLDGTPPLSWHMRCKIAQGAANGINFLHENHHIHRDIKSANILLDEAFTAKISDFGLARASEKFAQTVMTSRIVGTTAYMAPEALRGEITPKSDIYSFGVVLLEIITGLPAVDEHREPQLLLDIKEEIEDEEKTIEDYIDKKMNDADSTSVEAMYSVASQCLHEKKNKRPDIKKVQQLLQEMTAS

Experiment [19] has as its target STE20-like serine/threonine-protein kinase (Homo sapiens, UniProt Q9H2G2).
Experiment [20] has as its target Mitogen-activated protein kinase 12 (Homo sapiens, UniProt P53778).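 Further: measured as one member of a kinome-wide kinase profiling panel.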
The target in experiment [21] is Serine/threonine-protein kinase 3 (Homo sapiens, UniProt Q13188).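 Further: measured as one member of a kinome-wide kinase panel.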

Chain of Dual specificity tyrosine-phosphorylation-regulated kinase 3 (O43781 whole entry, canonical isoform): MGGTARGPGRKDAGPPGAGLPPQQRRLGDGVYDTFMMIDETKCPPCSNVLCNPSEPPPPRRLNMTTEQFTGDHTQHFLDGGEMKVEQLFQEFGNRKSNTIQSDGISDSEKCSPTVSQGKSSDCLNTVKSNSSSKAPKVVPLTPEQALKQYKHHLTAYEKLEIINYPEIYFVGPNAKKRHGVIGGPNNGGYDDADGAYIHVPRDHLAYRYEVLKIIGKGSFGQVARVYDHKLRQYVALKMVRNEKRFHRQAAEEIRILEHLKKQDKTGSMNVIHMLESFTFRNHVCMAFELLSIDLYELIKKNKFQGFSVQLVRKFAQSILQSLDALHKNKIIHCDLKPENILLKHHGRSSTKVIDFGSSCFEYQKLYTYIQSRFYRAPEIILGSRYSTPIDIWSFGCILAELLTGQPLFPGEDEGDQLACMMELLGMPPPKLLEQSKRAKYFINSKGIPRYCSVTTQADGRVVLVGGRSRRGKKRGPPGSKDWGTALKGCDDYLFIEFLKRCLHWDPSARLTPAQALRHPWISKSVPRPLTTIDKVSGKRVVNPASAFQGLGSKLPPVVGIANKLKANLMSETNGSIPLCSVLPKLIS
Chain of Ribosomal protein S6 kinase beta-1 (P23443 whole entry): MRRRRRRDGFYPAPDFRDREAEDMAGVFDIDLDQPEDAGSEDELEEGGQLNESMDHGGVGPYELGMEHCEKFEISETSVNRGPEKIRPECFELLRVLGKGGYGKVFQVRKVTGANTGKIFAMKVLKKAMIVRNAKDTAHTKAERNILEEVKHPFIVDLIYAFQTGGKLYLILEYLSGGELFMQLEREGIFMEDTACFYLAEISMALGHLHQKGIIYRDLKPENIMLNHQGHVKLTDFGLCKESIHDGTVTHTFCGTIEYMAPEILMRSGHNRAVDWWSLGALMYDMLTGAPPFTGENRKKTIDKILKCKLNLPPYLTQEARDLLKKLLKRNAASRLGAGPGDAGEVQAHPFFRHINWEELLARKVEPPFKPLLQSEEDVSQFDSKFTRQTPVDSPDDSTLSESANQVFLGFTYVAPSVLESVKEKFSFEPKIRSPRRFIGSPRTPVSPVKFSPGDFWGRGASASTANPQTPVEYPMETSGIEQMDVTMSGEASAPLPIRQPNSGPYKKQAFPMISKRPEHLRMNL
Chain of Casein kinase I isoform delta (P48730 whole entry, canonical isoform): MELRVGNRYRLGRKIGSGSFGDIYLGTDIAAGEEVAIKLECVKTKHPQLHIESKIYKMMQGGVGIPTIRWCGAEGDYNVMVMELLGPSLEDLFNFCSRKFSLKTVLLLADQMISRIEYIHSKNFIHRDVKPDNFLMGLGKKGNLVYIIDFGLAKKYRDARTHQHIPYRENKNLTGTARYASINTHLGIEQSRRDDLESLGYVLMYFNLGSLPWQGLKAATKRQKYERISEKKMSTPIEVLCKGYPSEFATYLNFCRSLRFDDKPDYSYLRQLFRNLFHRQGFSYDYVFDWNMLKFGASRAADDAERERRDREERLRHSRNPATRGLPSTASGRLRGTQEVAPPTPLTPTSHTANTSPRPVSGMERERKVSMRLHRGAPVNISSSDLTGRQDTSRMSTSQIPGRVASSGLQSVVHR
Chain of Serine/threonine-protein kinase N2 (Q16513 whole entry): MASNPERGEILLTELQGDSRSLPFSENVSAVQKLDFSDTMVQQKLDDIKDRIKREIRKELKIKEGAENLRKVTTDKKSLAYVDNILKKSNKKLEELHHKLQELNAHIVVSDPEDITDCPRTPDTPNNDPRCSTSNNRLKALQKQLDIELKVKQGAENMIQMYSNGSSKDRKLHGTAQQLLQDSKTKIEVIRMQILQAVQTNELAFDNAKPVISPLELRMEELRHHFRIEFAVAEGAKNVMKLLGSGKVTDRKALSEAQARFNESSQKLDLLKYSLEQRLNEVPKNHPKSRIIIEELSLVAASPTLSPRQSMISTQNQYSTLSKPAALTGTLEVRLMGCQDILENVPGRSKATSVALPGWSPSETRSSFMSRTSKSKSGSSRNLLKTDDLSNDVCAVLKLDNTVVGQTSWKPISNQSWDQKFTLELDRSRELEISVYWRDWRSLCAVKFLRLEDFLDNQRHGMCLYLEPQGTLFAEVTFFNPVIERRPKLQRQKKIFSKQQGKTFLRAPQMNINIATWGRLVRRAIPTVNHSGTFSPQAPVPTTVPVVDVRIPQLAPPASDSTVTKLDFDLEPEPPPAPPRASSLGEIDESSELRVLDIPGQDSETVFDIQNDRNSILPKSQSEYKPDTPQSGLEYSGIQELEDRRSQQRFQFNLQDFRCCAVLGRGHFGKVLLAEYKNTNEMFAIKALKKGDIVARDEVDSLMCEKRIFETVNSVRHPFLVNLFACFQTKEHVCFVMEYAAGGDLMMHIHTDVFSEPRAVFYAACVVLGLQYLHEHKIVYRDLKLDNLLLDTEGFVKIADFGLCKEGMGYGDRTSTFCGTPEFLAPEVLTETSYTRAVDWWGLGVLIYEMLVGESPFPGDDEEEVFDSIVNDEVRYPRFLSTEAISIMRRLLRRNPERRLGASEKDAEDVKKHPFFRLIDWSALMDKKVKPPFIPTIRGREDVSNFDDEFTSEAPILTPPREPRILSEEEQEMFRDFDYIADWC
Chain of Tyrosine-protein kinase JAK3 (P52333 whole entry, canonical isoform): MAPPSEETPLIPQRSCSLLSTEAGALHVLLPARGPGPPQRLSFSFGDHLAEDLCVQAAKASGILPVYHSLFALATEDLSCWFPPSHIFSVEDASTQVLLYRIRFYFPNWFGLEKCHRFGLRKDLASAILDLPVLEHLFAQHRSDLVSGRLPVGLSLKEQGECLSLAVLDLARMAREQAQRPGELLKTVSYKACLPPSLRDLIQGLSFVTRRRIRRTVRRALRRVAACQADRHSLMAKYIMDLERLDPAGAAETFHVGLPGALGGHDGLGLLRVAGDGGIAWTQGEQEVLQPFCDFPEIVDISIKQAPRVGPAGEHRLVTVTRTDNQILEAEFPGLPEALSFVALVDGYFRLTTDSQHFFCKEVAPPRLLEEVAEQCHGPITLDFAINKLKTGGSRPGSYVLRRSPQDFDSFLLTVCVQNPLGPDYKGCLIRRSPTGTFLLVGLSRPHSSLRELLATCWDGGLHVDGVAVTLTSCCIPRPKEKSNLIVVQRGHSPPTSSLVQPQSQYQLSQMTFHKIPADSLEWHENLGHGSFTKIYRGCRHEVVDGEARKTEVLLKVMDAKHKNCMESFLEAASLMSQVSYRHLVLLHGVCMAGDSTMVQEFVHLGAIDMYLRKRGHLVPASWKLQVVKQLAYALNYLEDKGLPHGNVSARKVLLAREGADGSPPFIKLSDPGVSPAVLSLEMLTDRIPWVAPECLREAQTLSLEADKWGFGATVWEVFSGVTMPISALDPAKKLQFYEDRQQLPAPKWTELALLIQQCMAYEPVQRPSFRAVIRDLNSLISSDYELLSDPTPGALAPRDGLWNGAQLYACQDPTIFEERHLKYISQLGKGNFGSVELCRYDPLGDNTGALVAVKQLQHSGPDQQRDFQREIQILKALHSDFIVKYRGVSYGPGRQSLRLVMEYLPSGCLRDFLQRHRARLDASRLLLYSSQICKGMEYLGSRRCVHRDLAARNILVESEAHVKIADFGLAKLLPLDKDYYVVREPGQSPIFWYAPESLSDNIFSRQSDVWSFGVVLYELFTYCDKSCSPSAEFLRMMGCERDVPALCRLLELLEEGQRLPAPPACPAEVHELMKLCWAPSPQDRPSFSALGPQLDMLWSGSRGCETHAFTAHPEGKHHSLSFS
Chain of Mitogen-activated protein kinase kinase kinase 20 (Q9NYL2 whole entry): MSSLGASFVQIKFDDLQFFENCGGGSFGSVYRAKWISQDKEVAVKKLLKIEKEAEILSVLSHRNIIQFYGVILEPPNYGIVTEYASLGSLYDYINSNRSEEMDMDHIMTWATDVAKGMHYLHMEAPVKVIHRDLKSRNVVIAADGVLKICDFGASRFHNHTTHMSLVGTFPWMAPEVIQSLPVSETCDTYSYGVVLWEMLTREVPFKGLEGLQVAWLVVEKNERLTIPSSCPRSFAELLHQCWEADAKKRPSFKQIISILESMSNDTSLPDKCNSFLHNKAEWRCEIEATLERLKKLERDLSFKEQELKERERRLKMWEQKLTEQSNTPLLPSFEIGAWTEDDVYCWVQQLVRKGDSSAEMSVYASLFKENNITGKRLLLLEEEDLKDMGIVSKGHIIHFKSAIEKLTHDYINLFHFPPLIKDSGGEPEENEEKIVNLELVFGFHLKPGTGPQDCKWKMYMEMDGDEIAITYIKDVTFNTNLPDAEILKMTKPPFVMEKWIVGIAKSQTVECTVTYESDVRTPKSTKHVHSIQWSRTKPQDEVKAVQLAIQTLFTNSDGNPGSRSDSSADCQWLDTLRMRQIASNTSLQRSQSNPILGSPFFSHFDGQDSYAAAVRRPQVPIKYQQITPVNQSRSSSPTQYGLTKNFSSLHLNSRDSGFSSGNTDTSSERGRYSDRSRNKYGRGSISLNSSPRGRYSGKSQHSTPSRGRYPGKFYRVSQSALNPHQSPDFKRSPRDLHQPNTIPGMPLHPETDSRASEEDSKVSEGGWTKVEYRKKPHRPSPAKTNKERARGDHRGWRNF
Chain of Casein kinase I isoform gamma-1 (Q9HCP0 whole entry, canonical isoform): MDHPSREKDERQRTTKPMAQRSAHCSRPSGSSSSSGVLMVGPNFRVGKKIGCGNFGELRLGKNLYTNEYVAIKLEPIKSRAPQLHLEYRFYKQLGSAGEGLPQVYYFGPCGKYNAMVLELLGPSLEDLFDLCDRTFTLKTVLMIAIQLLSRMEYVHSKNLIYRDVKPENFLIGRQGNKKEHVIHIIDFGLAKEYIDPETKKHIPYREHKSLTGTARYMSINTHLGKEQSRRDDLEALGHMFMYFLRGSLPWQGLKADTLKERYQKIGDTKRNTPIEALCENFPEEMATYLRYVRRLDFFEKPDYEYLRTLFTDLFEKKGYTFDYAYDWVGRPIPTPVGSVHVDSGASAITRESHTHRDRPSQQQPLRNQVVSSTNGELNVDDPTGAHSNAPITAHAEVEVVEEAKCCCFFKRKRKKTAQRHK

What is called Ki is a measure of affinity in units of concentration, obtained from inhibition or displacement. Turning to `NNc1cc(N2CCOCC2)nc(OCCc2ccccn2)n1`, the Ki in experiment [1] is > 5.01 µM (inactive); in experiment [2], > 7.94 µM (inactive); in experiment [3], > 6.31 µM (inactive); in [4] it was 0.398 µM (active); on SRSF protein kinase 1, > 7.94 µM (inactive); in experiment [5], > 3.98 µM (inactive). Further, the Ki in experiment [6] was > 6.31 µM (inactive); in experiment [7], > 5.01 µM (inactive); in experiment [8], > 6.31 µM (inactive); in experiment [9], > 7.94 µM (inactive); in experiment [10], > 7.94 µM (inactive); in experiment [11], > 7.94 µM (inactive). Further, the Ki is > 7.94 µM (inactive) in experiment [12]; > 6.31 µM (inactive) in experiment [13]; > 7.94 µM (inactive) in experiment [14]; > 3.98 µM (inactive) in [15]; > 7.94 µM (inactive) in experiment [16]; > 6.31 µM (inactive) in [17]. Besides, the Ki on Aurora kinase B is > 6.31 µM (inactive); in experiment [18], 2.51 µM (active); in [19], > 10 µM (inactive); in [20], > 6.31 µM (inactive); in [21], > 7.94 µM (inactive).
